IC50 and inhibition data for 29 molecules are collected here from patent US6632829B2, “Sulfonamides and derivatives thereof that modulate the activity of endothelin” (Texas Biotechnology Corp., priority 1996, dated 2003).

One assay concerns the target T1, human ETA receptors (Homo sapiens, UniProt P25101).
T1 construct: endogenous in cells; host or cells: TE 671 cells (ATCC HTB 139), membrane preparation
T1 sequence (P25101 21-427): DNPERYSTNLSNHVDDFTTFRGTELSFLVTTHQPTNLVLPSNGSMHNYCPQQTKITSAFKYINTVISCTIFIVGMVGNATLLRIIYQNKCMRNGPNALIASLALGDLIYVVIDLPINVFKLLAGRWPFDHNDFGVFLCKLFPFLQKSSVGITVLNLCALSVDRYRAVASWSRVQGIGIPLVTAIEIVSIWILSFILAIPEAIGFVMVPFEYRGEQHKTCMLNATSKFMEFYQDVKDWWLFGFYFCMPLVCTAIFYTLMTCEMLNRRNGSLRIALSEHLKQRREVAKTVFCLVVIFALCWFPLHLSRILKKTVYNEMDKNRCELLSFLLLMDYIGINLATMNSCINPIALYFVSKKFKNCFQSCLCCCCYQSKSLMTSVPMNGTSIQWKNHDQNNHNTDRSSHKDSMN
Kind of assay: Endothelin binding inhibition, Binding Test #1: competition with 125I-ET-1 for ETA receptors on TE 671 cell membranes.

The target in a further assay is T2, human ETB receptor (Homo sapiens, UniProt P24530).
T2 construct: expressed in transfected cells; host or cells: COS7 cells
T2 sequence (P24530 27-442): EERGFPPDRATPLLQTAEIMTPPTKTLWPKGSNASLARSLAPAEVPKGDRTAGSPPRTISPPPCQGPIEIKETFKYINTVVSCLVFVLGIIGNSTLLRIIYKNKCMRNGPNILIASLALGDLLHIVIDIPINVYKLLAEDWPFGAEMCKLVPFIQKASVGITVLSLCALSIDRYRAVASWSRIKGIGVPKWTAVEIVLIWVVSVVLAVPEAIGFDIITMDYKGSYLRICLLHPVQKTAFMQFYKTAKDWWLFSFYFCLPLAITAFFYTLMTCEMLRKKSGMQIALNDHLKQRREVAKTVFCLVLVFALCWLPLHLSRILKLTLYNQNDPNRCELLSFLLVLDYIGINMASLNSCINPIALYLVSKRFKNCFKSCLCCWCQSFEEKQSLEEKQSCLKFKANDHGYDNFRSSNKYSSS
The assay is described as follows: Endothelin binding inhibition, Binding Test #2: competition with 125I-ET-1 for ETB receptors on transfected COS7 cell membranes. As to conditions: for inhibition at 100 µM: read-out: ETB % inhibition @ 100 μM, @ 100 μM, incubation at 24° C. The procedure, abridged:
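Membranes from COS7 cells transfected with human ETB receptor, prepared in HEPES pH 7.4 with aprotinin, MnCl2/DNase treatment at 37° C for 30 min. Test compounds compete with 125I-labeled ET-1 for receptor binding; membrane used at 1 μg/50 μL binding buffer.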

[1] abbreviates: incubation at 24° C. (values marked †).
[2] abbreviates: incubation at 4° C. (values without †).

Several values for one entry are separate records, joined by “and”; a condition that tells them apart may be missing. Equal values may be shown once.

As usually defined, the IC50 is the concentration needed to halve the response being measured. Consider `Cc1cc2c(cc1CC(=O)c1sccc1S(=O)(=O)Nc1noc(C)c1Cl)OCO2` [N-(4-chloro-5-methyl-3-isoxazolyl)-2-[2-methyl-4,5-(methylenedioxy)phenylacetyl]thiophene-3-sulfonamide], for which the IC50 at human ETA receptors (setting [1]) stood at 0.000625 µM; at human ETB receptor (setting [1]) it was 3.69 µM.
In the case of `Cc1ccc(CC(=O)c2sccc2S(=O)(=O)Nc2onc(C)c2Br)cc1` [N-(4-bromo-3-methyl-5-isoxazolyl)-2-[(4-methylphenyl)acetyl]thiophene-3-sulfonamide], the half-maximal inhibitory concentration (IC50) on human ETA receptors (setting [1]) was determined as 0.198 µM; on human ETB receptor (setting [1]), 9.13 µM.
For orientation: inhibition means the relative decrease from the control value, in per cent. On to `Cc1cc(C)c(OC(=O)c2sccc2S(=O)(=O)Nc2onc(C)c2C)c(C)c1` [N-(3,4-dimethyl-5-isoxazolyl)-2-[(2,4,6-trimethylphenoxy)carbonyl]thiophene-3-sulfonamide], for which, on human ETA receptors (setting [1]), the IC50 turned out to be 0.537 µM. In addition, the inhibition at 100 µM on human ETB receptor was 8%.
Consider `COc1cc(C#N)c(NC(=O)c2sccc2S(=O)(=O)Nc2onc(C)c2Cl)cc1OC` [N-(4-chloro-3-methyl-5-isoxazolyl)-2-[{2-cyano-4,5-dimethoxyphenyl)aminocarbonyl]thiophene-3-sulfonamide], for which the IC50 on human ETA receptors (setting [1]) turned out to be 0.0039 µM; on human ETB receptor (setting [1]), 12.2 µM.
For `COc1ccccc1Cc1sc2ccccc2c1S(=O)(=O)Nc1onc(C)c1Br` [N-(4-bromo-3-methyl-5-isoxozolyl)-2-(2-methoxybenzyl)-benzo[b]thiophene-3-sulfonamide], the IC50 at human ETA receptors (setting [1]) stood at 0.19 µM; at human ETB receptor (setting [1]), 2.2 µM.
`COc1cccc(CC(=O)c2sccc2S(=O)(=O)Nc2onc(C)c2Br)c1` [N-(4-bromo-3-methyl-5-isoxazolyl)-2-[(3-methoxyphenyl)acetyl]thiophene-3-sulfonamide]: the figures for the IC50 on human ETA receptors (setting [1]) and at human ETB receptor (setting [1]) were 0.03 µM and 19.1 µM, respectively.
Regarding `Cc1ccc(CCc2ccsc2S(=O)(=O)Nc2onc(C)c2Br)cc1` [N-(4-bromo-3-methyl-5-isoxazolyl)-3-(4-methylphenethyl)thiophene-2-sulfonamide], the figures for the concentration for half-maximal inhibition (IC50) at human ETA receptors (setting [1]) and at human ETB receptor (setting [1]) were 0.347 µM and 9.4 µM, respectively.
Take `Cc1cc(C)c(CC(=O)c2sccc2S(=O)(=O)Nc2onc(C)c2Cl)c(C)c1` [N-(4-chloro-3-methyl-5-isoxazolyl)-2-(2,4,6-trimethylphenylacetyl)thiophene-3-sulfonamide]: the results for the half-inhibitory concentration (IC50) at human ETA receptors (setting [1]) and on human ETB receptor (setting [1]) were 0.000238 µM and 3.82 µM, respectively.
Taken in the same sequence, the figures for `CCc1ccc(Cc2sc3ccccc3c2S(=O)(=O)Nc2onc(C)c2Br)cc1` [N-(4-bromo-3-methyl-5-isoxazolyl)-2-(4-ethylbenzyl)benzo[b]thiophene-3-sulfonamide] were 0.048 µM and 1.1 µM.
With `Cc1noc(NS(=O)(=O)c2ccsc2C(=O)Oc2ccccc2)c1C` [N-(3,4-dimethyl-5-isoxazolyl)-2-(phenoxycarbonyl)thiophene-3-sulfonamide], the IC50 at human ETA receptors (setting [1]) amounted to 2.85 µM. On human ETB receptor, the inhibition at 100 µM was determined as 31%.
As for `Cc1ccc(CCc2sccc2S(=O)(=O)Nc2onc(C)c2Br)c(C)c1` [N-(4-bromo-3-methyl-5-isoxazolyl)-2-(2,4-dimethylphenethyl)thiophene-3-sulfonamide], the IC50 on human ETA receptors (setting [1]) amounted to 0.0555 µM; at human ETB receptor (setting [1]), 3.48 µM.
`Cc1noc(NS(=O)(=O)c2ccsc2C(=O)Nc2ccc3c(c2)OCO3)c1Cl` [N-(4-chloro-3-methyl-5-isoxazolyl)-2-[3,4-(methylenedioxy)]phenylaminocarbonyl-3-thiophenesulfonamide]: the IC50 on human ETA receptors (setting [1]) stood at 0.0073 µM; at human ETB receptor (setting [1]), 9.2 µM.
In the case of `Cc1cc2c(cc1C=CCc1sccc1S(=O)(=O)Nc1onc(C)c1Br)OCO2` [N-(4-bromo-3-methyl-5-isoxazolyl)-2-[2-methyl-4,5-(methylenedioxy)cinnamyl]thiophene-3-sulfonamide], the values for the IC50 at human ETA receptors (setting [1]) and at human ETB receptor (setting [1]) were 0.0804 µM and 3.28 µM, respectively.
At human ETA receptors (setting [1]), `Cc1ccc(OC(=O)c2sccc2S(=O)(=O)Nc2onc(C)c2C)c(C)c1` [N-(3,4-dimethyl-5-isoxazolyl)-2-[(2,4-dimethylphenoxy)carbonyl]thiophene-3-sulfonamide] had an IC50 of 0.274 µM. The inhibition at 100 µM at human ETB receptor turned out to be 21%.
Regarding `Cc1noc(NS(=O)(=O)c2ccsc2NC(=O)Oc2ccc3c(c2)OCO3)c1Br` [N-(4-bromo-3-methyl-5-isoxazolyl)-2-[3,4-(methylenedioxy)phenoxycarbonylamino]thiophene-3-sulfonamide], the IC50 at human ETA receptors (setting [1]) was 0.087 µM; on human ETB receptor (setting [1]) it was 5.9 µM.
As to `Cc1noc(NS(=O)(=O)c2c(-c3ccc4c(c3)OCO4)sc3ccccc23)c1Cl` [N-(4-chloro-3-methyl-5-isoxazolyl)-2-[3,4-(methylenedioxy)phenyl]benzo[b]thiophene-3-sulfonamide], the results for the IC50 on human ETA receptors (setting [1]) and on human ETB receptor (setting [1]) were 0.55 µM and 52.6 µM, respectively.
`Cc1noc(NS(=O)(=O)c2ccsc2C/C=C/c2ccc3c(c2)OCO3)c1Br` [N-(4-bromo-3-methyl-5-isoxazolyl)-2-[trans-(3,4-methylenedioxy)cinnamyl]thiophene-3-sulfonamide]: the IC50 at human ETA receptors (setting [1]) is 0.14 µM; on human ETB receptor (setting [1]) it was 1.4 µM.
Turning to `COc1cc(Cc2sc3ccccc3c2S(=O)(=O)Nc2onc(C)c2Br)cc(OC)c1OC` [N-(4-bromo-3-methyl-5-isoxazolyl)-2-(3,4,5-trimethoxybenzyl)-benzo[b]thiophene-3-sulfonamide], the IC50 at human ETA receptors (setting [1]) came out at 0.013 µM; at human ETB receptor (setting [1]) it was 1.2 µM.
Regarding `Cc1noc(NS(=O)(=O)c2sccc2-c2ccc(C(C)C)cc2)c1Br` [N-(4-bromo-3-methyl-5-isoxazolyl)-3-(4-iso-propylphenyl)thiophene-2-sulfonamide], the IC50 at human ETA receptors (setting [2]) is 0.218 µM; at human ETB receptor (setting [1]), 28.3 µM.
Take `Cc1onc(NS(=O)(=O)c2c(Cc3ccc4c(c3)OCO4)sc3ccccc23)c1Cl` [N-(4-chloro-5-methyl-3-isoxazolyl)-2-[3,4-(methylenedioxy)benzyl]benzo[b]thiophene-3-sulfonamide]: the IC50 on human ETA receptors (setting [1]) is 0.0055 µM; at human ETB receptor (setting [1]), 0.364 µM.
With `COc1ccccc1OC(=O)c1sccc1S(=O)(=O)Nc1onc(C)c1Br` [N-(4-bromo-3-methyl-5-isoxazolyl)-2-[(2-methoxylphenoxy)carbonyl]thiophene-3-sulfonamide], the IC50 at human ETA receptors (setting [1]) was 0.761 µM. Further, the inhibition at 100 µM at human ETB receptor was 29%.
As for `Cc1noc(NS(=O)(=O)c2ccsc2C(=O)N(C)c2ccccc2)c1Br` [N-(4-bromo-3-methyl-5-isoxazolyl)-2-[(methyl)phenylaminocarbonyl]thiophene-3-sulfonamide], the values for the IC50 on human ETA receptors (setting [2]) and at human ETB receptor (setting [2]) were 0.188 µM and 16 µM, respectively.
`Cc1noc(NS(=O)(=O)c2ccsc2NC(=O)Nc2ccc3c(c2)OCO3)c1Br` [N-(4-bromo-3-methyl-5-isoxazolyl)-2-[(3,4-methylenedioxy)phenylureido]thiophene-3-sulfonamide]: the IC50 worked out at 0.57 µM at human ETA receptors (setting [1]) and 1.3 µM on human ETB receptor (setting [1]).
Turning to `Cc1ccc(OC(=O)c2sccc2S(=O)(=O)Nc2onc(C)c2Br)c(C)c1` [N-(4-bromo-3-methyl-5-isoxazolyl)-2-[(2,4-dimethylphenoxy)carbonyl]thiophene-3-sulfonamide], the IC50 on human ETA receptors (setting [1]) came to 0.291 µM; on human ETB receptor (setting [1]), 43.2 µM.
Taken in the same sequence, the figures for `Cc1noc(NS(=O)(=O)c2ccsc2CC2(c3ccc4c(c3)OCO4)OCCO2)c1Cl` [N-(4-chloro-3-methyl-5-isoxazolyl)-2-[β,β-(ethylenedioxy)-3,4-(methylenedioxy)phenethyl]thiophene-3-sulfonamide] were 0.128 µM and 2.09 µM.
As to `Cc1ccccc1-c1ccsc1S(=O)(=O)Nc1onc(C)c1Br` [N-(4-bromo-3-methyl-5-isoxazolyl)-3-(2-tolyl)thiophene-2-sulfonamide], the half-inhibitory concentration (IC50) on human ETA receptors (setting [1]) was 0.324 µM and 0.302 µM; on human ETB receptor (setting [1]), 55.1 µM. Besides, the inhibition at 100 µM at human ETB receptor amounted to 31%.
Consider `CCc1oc2ccccc2c1S(=O)(=O)Nc1onc(C)c1Cl` [N-(4-chloro-3-methyl-5-isoxazolyl)-2-ethylbenzo[b]furan-3-sulfonamide], for which the values for the half-inhibitory concentration (IC50) on human ETA receptors (setting [1]) and on human ETB receptor (setting [1]) were 0.15 µM and 22 µM, respectively.
In the same order, the values of `Cc1ccc(CCc2sccc2S(=O)(=O)Nc2onc(C)c2Br)cc1` [N-(4-bromo-3-methyl-5-isoxazolyl)-2-[(4-methyl)phenethyl]thiophene-3-sulfonamide] are 0.106 µM and 40.1 µM.
Turning to `Cc1ccc(OCc2sccc2S(=O)(=O)Nc2onc(C)c2Br)c(C)c1` [N-(4-bromo-3-methyl-5-isoxazolyl)-2-[(2,4-dimethylphenoxy)methyl]thiophene-3-sulfonamide], the values for the IC50 at human ETA receptors (setting [1]) and at human ETB receptor (setting [1]) were 0.308 µM and 4.48 µM, respectively.
